Source: patent publication US7772271B2 (priority 2004, dated 2010)

Compound	melting point [°C]
CC(C)C(C)OC(=O)Nc1ccc(-c2c(C#N)c3ccc(OC4CCOC4)cc3n2C2CC2)cc1 (centres unmarked) [Compound 1446]	207 to 208
CC(OC(=O)Nc1ccc(-c2c(C#N)c3ccc(OC4CCOC4)cc3n2C2CC2)cc1)C(C)(C)C (centres unmarked) [Compound 1447]	220 to 222
CC(NC(=O)Nc1ccc(-c2c(C#N)c3ccc(OC4CCOC4)cc3n2C2CC2)cc1)c1ccc(F)cc1 (centres unmarked) [Compound 1448]	182 to 184
CC(C)OC(=O)Nc1ccc(-c2c(C#N)c3ccc(OC4CCOC4)cc3n2C2CC2)cc1 (centres unmarked) [Compound 1449]	180 to 181
CCCS(=O)(=O)Nc1ccc(-c2c(C#N)c3ccc(OCCCO)cc3n2C2CCC2)cc1 [Compound 1450]	162 to 163
CCCS(=O)(=O)Nc1ccc(-c2c(C#N)c3ccc(OCCO)cc3n2C2CCC2)cc1 [Compound 1451]	163 to 164
CC(OC(=O)Nc1ccc(-c2c(C#N)c3ccc(OC4CCOC4)cc3n2C2CCC2)cc1)C1CC1 (centres unmarked) [Compound 1453]	183 to 184
CC(C)C(OC(=O)Nc1ccc(-c2c(C#N)c3ccc(OC4CCOC4)cc3n2C2CCC2)cc1)C(C)C (centres unmarked) [Compound 1454]	183 to 184
N#Cc1c(-c2ccc(NC(=O)OC3CCC3)cc2)n(C2CCC2)c2cc(OC3CCOC3)ccc12 (centres unmarked) [Compound 1455]	183 to 184
CC(OC(=O)Nc1ccc(-c2c(C#N)c3ccc(OC4CCOC4)cc3n2C2CCC2)cc1)c1ccccc1 (centres unmarked) [Compound 1456]	183 to 184
CC(OC(=O)Nc1ccc(-c2c(C#N)c3ccc(OC4CCOC4)cc3n2C2CCC2)cc1)C(F)(F)F (centres unmarked) [Compound 1457]	183 to 184
CCC(OC(=O)Nc1ccc(-c2c(C#N)c3ccc(OC4CCOC4)cc3n2C2CCC2)cc1)C(C)C (centres unmarked) [Compound 1458]	183 to 184
CCC(C)C(C)OC(=O)Nc1ccc(-c2c(C#N)c3ccc(OC4CCOC4)cc3n2C2CCC2)cc1 (centres unmarked) [Compound 1459]	183 to 184
CC(OC(=O)Nc1ccc(-c2c(C#N)c3ccc(OC4CCOC4)cc3n2C2CCC2)cc1)C1CCCC1 (centres unmarked) [Compound 1460]	183 to 184
CC(C)NC(=O)Nc1ccc(-c2c(C#N)c3ccc(OC4CCOC4)cc3n2C2CCC2)cc1 (centres unmarked) [Compound 1462]	183 to 184
CC(C)Nc1ccc(-c2c(C#N)c3ccc(OC4CCOC4)cc3n2C2CC2)cc1 (centres unmarked) [Compound 2150]	170 to 172
CCN(CC)C(=O)c1ccc2c(C#N)c(-c3ccc(NC(=O)OC(C)C)cc3)n(C3CCC3)c2c1 [Compound 2186]	189 to 191
CCOc1ccc2c(C#N)c(-c3ccc(C(=O)NCCc4ccccn4)cc3)n(C3CCC3)c2c1 [Compound 2250]	194 to 195
CCOc1ccc2c(C#N)c(-c3ccc(C(=O)N4CC[C@@H](O)C4)cc3)n(C3CCC3)c2c1 [Compound 2251]	172 to 173
CCCN(CCC)C(=O)c1ccc2c(C#N)c(-c3ccc(NC(=O)O[C@H](C)C4CC4)cc3)n(C3CCC3)c2c1 [Compound 2271]	160 to 163
CCN(CC)C(=O)c1ccc2c(C#N)c(-c3ccc(NC(=O)O[C@H](C)C4CC4)cc3)n(C3CCC3)c2c1 [Compound 2272]	166 to 168
CCC(C)NC(=O)c1ccc2c(C#N)c(-c3ccc(NC(=O)O[C@H](C)C4CC4)cc3)n(C3CCC3)c2c1 (some centres unmarked) [Compound 2273]	118 to 121

Compound	melting point [°C]
CCN(C)C(=O)c1ccc2c(C#N)c(-c3ccc(NC(=O)O[C@H](C)C4CC4)cc3)n(C3CCC3)c2c1 [Compound 2275]	114 to 117
C[C@@H](OC(=O)Nc1ccc(-c2c(C#N)c3ccc(C(=O)N(C)C)cc3n2C2CCC2)cc1)C1CC1 [Compound 2276]	118 to 120
COc1ccc2c(F)c(-c3ccc(NC(=O)NC(C)C)cc3)n(CC3CC3)c2c1 [Compound 2277]	217 to 221
CCN(CC)C(=O)c1ccc2c(C#N)c(-c3ccc(NS(=O)(=O)C4CC4)cc3)n(C3CCC3)c2c1 [Compound 2294]	205 to 207
CCC(C)NC(=O)c1ccc2c(C#N)c(-c3ccc(NS(=O)(=O)C4CC4)cc3)n(C3CCC3)c2c1 (centres unmarked) [Compound 2295]	105 to 107
CCN(C)C(=O)c1ccc2c(C#N)c(-c3ccc(NS(=O)(=O)C4CC4)cc3)n(C3CCC3)c2c1 [Compound 2296]	202 to 205
CN(C)C(=O)c1ccc2c(C#N)c(-c3ccc(NS(=O)(=O)C4CC4)cc3)n(C3CCC3)c2c1 [Compound 2297]	235 to 237
CC(C)OC(=O)Nc1ccc(-c2c(C#N)c3cc(OCCCn4cncn4)ccc3n2C2CCC2)cc1 [Compound 2605]	204 to 205
CC(C)OC(=O)Nc1ccc(-c2c(C#N)c3cc(OCCCn4cccn4)ccc3n2C2CCC2)cc1 [Compound 2606]	148 to 150
CC(C)OC(=O)Nc1ccc(-c2c(C#N)c3cc(OCCCn4ccnc4)ccc3n2C2CCC2)cc1 [Compound 2607]	209 to 211
COCCOc1ccc2c(C#N)c(-c3ccc(NC(=O)OC(C)C)cc3)n(C(C)C)c2c1 [Compound 2608]	153 to 155
COCCOc1ccc2c(C#N)c(-c3ccc(NC(=O)OC4CCC4)cc3)n(C(C)C)c2c1 [Compound 2609]	165 to 166
COCCOc1ccc2c(C#N)c(-c3ccc(NC(=O)OC4CCOC4)cc3)n(C(C)C)c2c1 (centres unmarked) [Compound 2610]	181 to 183
CCOCCOc1ccc2c(C#N)c(-c3ccc(NC(=O)OC(C)C)cc3)n(C3CCC3)c2c1 [Compound 2611]	115 to 116
CCOCCOc1ccc2c(C#N)c(-c3ccc(NC(=O)NC(C)C)cc3)n(C3CCC3)c2c1 [Compound 2612]	148 to 150
CCOCCOc1ccc2c(C#N)c(-c3ccc(NC(=O)OC(C)C4CC4)cc3)n(C3CCC3)c2c1 (centres unmarked) [Compound 2613]	141 to 142
CC(OC(=O)Nc1ccc(-c2c(C#N)c3ccc(OC4CCOCC4)cc3n2C2CCC2)cc1)C1CC1 (centres unmarked) [Compound 2615]	118 to 120
CCC(CC)OC(=O)Nc1ccc(-c2c(C#N)c3ccc(OC4CCOCC4)cc3n2C2CCC2)cc1 [Compound 2617]	127 to 129
CC(OC(=O)Nc1ccc(-c2c(C#N)c3ccc(OC4CCOCC4)cc3n2C2CCC2)cc1)c1ccccc1 (centres unmarked) [Compound 2618]	96 to 98
CC(C)OC(=O)Nc1ccc(-c2c(C#N)c3cc(OCCn4ccnc4)ccc3n2C2CCC2)cc1 [Compound 2631]	185 to 188
CCOCCOc1ccc2c(C#N)c(-c3ccc(NC(=O)OC(C)C(F)(F)F)cc3)n(C3CCC3)c2c1 (centres unmarked) [Compound 2636]	122 to 124
CC(C)OC(=O)Nc1ccc(-c2c(C#N)c3ccc(O[C@@H]4CCOC4)cc3n2C2CCC2)cc1 [Compound 2638]	196 to 197

Compound	melting point [°C]
CC(OC(=O)Nc1ccc(-c2c(C#N)c3ccc(OCCCCn4ccnc4)cc3n2C2CCC2)cc1)c1ccc(F)cc1 (centres unmarked) [Compound 2642]	93 to 95
CC(OC(=O)Nc1ccc(-c2c(C#N)c3ccc(OCCCCn4cncn4)cc3n2C2CCC2)cc1)C(F)(F)F (centres unmarked) [Compound 2643]	168 to 169
CC(OC(=O)Nc1ccc(-c2c(C#N)c3ccc(OCCCCn4cncn4)cc3n2C2CCC2)cc1)c1ccc(F)cc1 (centres unmarked) [Compound 2644]	108 to 110
N#Cc1c(-c2ccc(NC(=O)OC(c3ccccc3)C(F)(F)F)cc2)n(C2CCC2)c2cc(OCCCCn3cncn3)ccc12 (centres unmarked) [Compound 2645]	118 to 120
CC(OC(=O)Nc1ccc(-c2c(C#N)c3ccc(OCC4OCCO4)cc3n2C2CCC2)cc1)C(F)(F)F (centres unmarked) [Compound 2646]	187 to 189
CC(OC(=O)Nc1ccc(-c2c(C#N)c3ccc(OC4CCOCC4)cc3n2C2CC2)cc1)C1CC1 (centres unmarked) [Compound 2647]	130 to 133
CC(OC(=O)Nc1ccc(-c2c(C#N)c3ccc(OC4CCOCC4)cc3n2C2CC2)cc1)C(C)(C)C (centres unmarked) [Compound 2648]	203 to 205
CC(OC(=O)Nc1ccc(-c2c(C#N)c3ccc(OC4CCOCC4)cc3n2C2CC2)cc1)C(F)(F)F (centres unmarked) [Compound 2649]	207 to 209
CC(NC(=O)Nc1ccc(-c2c(C#N)c3ccc(OC4CCOCC4)cc3n2C2CC2)cc1)c1ccc(F)cc1 (centres unmarked) [Compound 2653]	189 to 192
N#Cc1c(-c2ccc(NC(=O)OC(C(F)(F)F)C(F)(F)F)cc2)n(C2CCC2)c2cc(OCC3OCCO3)ccc12 [Compound 2657]	202 to 205
COCCN(C)C(=O)c1ccc2c(C#N)c(-c3ccc(NC(=O)OC(C)C)cc3)n(C3CCC3)c2c1 [Compound 2659]	102 to 105
CCOc1ccc2c(C#N)c(-c3ccc(S(=O)(=O)N4CCCCC4)cc3)n(C3CCC3)c2c1 [Compound 2661]	195 to 202
CCn1nnc(COc2ccc3c(C#N)c(-c4ccc(NC(=O)OC(C)C)cc4)n(C4CCC4)c3c2)n1 [Compound 2667]	184 to 190
CC(OC(=O)Nc1ccc(-c2c(C#N)c3ccc(OC4CCOCC4)cc3n2C2CCC2)cc1)C(F)(F)F (centres unmarked) [Compound 2668]	195 to 197
COCCOc1ccc2c(C#N)c(-c3ccc(NC(=O)OC(C)C(C)(C)C)cc3)n(C(C)C)c2c1 (centres unmarked) [Compound 2670]	204 to 205
COCCOc1ccc2c(C#N)c(-c3ccc(NC(C4CC4)C4CC4)cc3)n(C(C)C)c2c1 [Compound 2671]	148 to 150
N#Cc1c(-c2ccc(NC(=O)OC3CCC3)cc2)n(C2CCC2)c2ccc(OCCn3cncn3)cc12 [Compound 2677]	190 to 192
COCCOc1ccc2c(C#N)c(-c3ccc(NC(=O)OC(C)C(F)(F)F)cc3)n(C(C)C)c2c1 (centres unmarked) [Compound 2686]	162 to 165
COCCOc1ccc2c(C#N)c(-c3ccc(NC(=O)OC(C)c4ccc(F)cc4)cc3)n(C(C)C)c2c1 (centres unmarked) [Compound 2687]	89 to 112
COCCOc1ccc2c(C#N)c(-c3ccc(NC(=O)OC(c4ccccc4)C(F)(F)F)cc3)n(C(C)C)c2c1 (centres unmarked) [Compound 2688]	150 to 155
CCOc1ccc2c(C#N)c(-c3ccc(S(=O)(=O)N4CCC[C@H]4CO)cc3)n(C3CCC3)c2c1 [Compound 2689]	180 to 183
